Measured values as given in US11590129B2, “Combination therapy with an antitumor alkaloid” (PHARMA MAR, S.A., priority 2010, dated 2023).

How the values were obtained:
A2780 tumors = test: Human ovarian tumor xenografts (A2780) in athymic nude mice, tumor volume % T/C; assay type: in vivo
Protocol: (§1) Female athymic nude mice (Harlan Laboratories Models, S.L. (Barcelona, Spain) were utilized for all experiments. Animals were housed in individually ventilated cages, up to ten per cage in a 12-hour light-dark cycle at 21-23° C. and 40-60% humidity. The mice were allowed free access to irradiated standard rodent diet and sterilized water. Animals were acclimated for at least 5 days prior to tumor implantation with a tumor cell suspension.
The formula to calculate volume for a prolate ellipsoid was used to estimate tumor volume (mm^3) from 2-dimensional tumor measurements: Tumor volume (mm^3)=[L×W^2]÷2, where L is the length and it is the longest diameter in mm, and W is the width and it is the shortest diameter in mm of a tumor. Assuming unit density, volume was converted to weight (i.e., 1 mm^3=1 mg). Tumor volume and animal body weights were measured 2-3 times per week starting form the first day of treatment (Day 0).
PM01183 was provided in the form of vials of lyophilized PM01183 cake which was reconstituted with water for infusion to a concentration of 0.2 mg/mL. The PM01183 stock solution was further diluted in 5% glucose solution for injection to the dosing formulation concentrations. […] Vinorelbine was provided as a solution prepared by diluting the product with 0.9% saline solution.
(§2) Dose level groups were administered either as single agents or in combination.
Comparison of the median tumor volume in the treatment groups (T) to the median tumor volume in the control group (T/C×100%) was used for evaluation of the antitumor efficacy.
Day 9 for PM01183 and vinorelbine study) using the median-effect principle (Chou T. C. Pharmacol. Rev.

HT1080 tumors = test: Human fibrosarcoma (HT1080) orthotopically implanted in athymic nude mice, total diameter (tumor+leg) % T/C; assay type: in vivo
Protocol: as §1
HT1080 cells were grown at 37° C. with 5% CO2 in Minimum Essential Medium Eagle (MEME). Each animal was orthotopically implanted into gastroecnemius muscle by an intramuscular injection using 26G needle and a 1 cc syringe, with 5×10^6 HT1080 cells, from in vitro passage 9, suspended in serum free medium, without antibiotics.
Total diameter (tumor+leg) measurements were determined by using digital caliper (Fowler Sylvac, S235PAT). This total diameter and animal body weights were measured 2-3 times per week starting from the first day of treatment.
Treatment tolerability was assessed by monitoring body weight evolution, clinical signs as well as evidences of local damage in the injection site.
PM01183 was provided in the form of vials of lyophilized PM01183 cake which was reconstituted with water for infusion to a concentration of 0.2 mg/mL. The PM01183 stock solution was further diluted in 5% glucose solution for injection to the dosing formulation concentrations. Dacarbazine was provided in the form of a solution prepared by diluting the product with 5% glucose solution for injection to the target final concentration.
as §2
Comparison of the median total diameter (tumor+leg) in the treatment groups (T) to the median total diameter (tumor+leg) in the control group (T/C×100%) was used for evaluation of the antitumor efficacy.

[1] = PM01183 0.045 mg/kg iv days 0,7, doxorubicin study
[2] = PM01183 0.045 mg/kg iv days 0,7, paclitaxel study
[3] = PM01183 0.045 mg/kg iv days 0,7, vinorelbine study
[4] = PM01183 0.09 mg/kg iv days 0,7, doxorubicin study
[5] = PM01183 0.09 mg/kg iv days 0,7, paclitaxel study
[6] = PM01183 0.09 mg/kg iv days 0,7, vinorelbine study
[7] = PM01183 0.135 mg/kg iv days 0,7, doxorubicin study
[8] = PM01183 0.135 mg/kg iv days 0,7, paclitaxel study
[9] = PM01183 0.135 mg/kg iv days 0,7, vinorelbine study
[10] = PM01183 0.18 mg/kg iv days 0,7, doxorubicin study
[11] = PM01183 0.18 mg/kg iv days 0,7, paclitaxel study
[12] = PM01183 0.18 mg/kg iv days 0,7, vinorelbine study
[13] = PM01183 0.135 mg/kg iv days 0,7

## COc1ccc2[nH]c3c(c2c1)CCN[C@]31CS[C@@H]2c3c(OC(C)=O)c(C)c4c(c3[C@H](COC1=O)N1[C@@H]2[C@H]2c3c(cc(C)c(OC)c3O)C[C@@H]([C@@H]1O)N2C)OCO4 [PM01183]
A2780 tumors; [1]
  % T/C on day 0: 100.1%
  % T/C on day 3: 98.2%
  % T/C on day 5: 98.6%
  % T/C on day 7: 97.7%
  % T/C on day 10: 90.0%
A2780 tumors; [2]
  % T/C on day 0: 94.0%
  % T/C on day 3: 91.1%
  % T/C on day 5: 99.6%
  % T/C on day 7: 88.0%
  % T/C on day 10: 73.1%
A2780 tumors; [3]
  % T/C on day 0: 97.8%
  % T/C on day 2: 107.5%
  % T/C on day 5: 93.6%
  % T/C on day 7: 92.5%
  % T/C on day 9: 97.1%
A2780 tumors; [4]
  % T/C on day 0: 100.2%
  % T/C on day 3: 93.3%
  % T/C on day 5: 95.2%
  % T/C on day 7: 93.5%
  % T/C on day 10: 87.7%
A2780 tumors; [5]
  % T/C on day 0: 94.2%
  % T/C on day 3: 88.5%
  % T/C on day 5: 114.1%
  % T/C on day 7: 103.3%
  % T/C on day 10: 88.0%
A2780 tumors; [6]
  % T/C on day 0: 98.0%
  % T/C on day 2: 88.6%
  % T/C on day 5: 61.2%
  % T/C on day 7: 87.6%
  % T/C on day 9: 94.5%
A2780 tumors; [7]
  % T/C on day 0: 102.2%
  % T/C on day 3: 82.4%
  % T/C on day 5: 86.6%
  % T/C on day 7: 89.2%
  % T/C on day 10: 82.4%
A2780 tumors; [8]
  % T/C on day 0: 101.2%
  % T/C on day 3: 89.9%
  % T/C on day 5: 99.8%
  % T/C on day 7: 84.5%
  % T/C on day 10: 61.2%
A2780 tumors; [9]
  % T/C on day 0: 98.3%
  % T/C on day 2: 105.3%
  % T/C on day 5: 77.2%
  % T/C on day 7: 79.1%
  % T/C on day 9: 78.7%
A2780 tumors; [10]
  % T/C on day 0: 100.9%
  % T/C on day 3: 70.2%
  % T/C on day 5: 68.5%
  % T/C on day 7: 69.3%
  % T/C on day 10: 62.1%
A2780 tumors; [11]
  % T/C on day 0: 101.6%
  % T/C on day 3: 68.9%
  % T/C on day 5: 83.1%
  % T/C on day 7: 69.1%
  % T/C on day 10: 52.8%
A2780 tumors; [12]
  % T/C on day 0: 98.9%
  % T/C on day 2: 101.6%
  % T/C on day 5: 72.2%
  % T/C on day 7: 61.3%
  % T/C on day 9: 62.8%
HT1080 tumors; PM01183 0.045 mg/kg
  % T/C on day 0: 100%
  % T/C on day 2: 77.8%
  % T/C on day 4: 74.3%
  % T/C on day 7: 94.2%
  % T/C on day 9: 80.0%
  % T/C on day 11: 74.0%
  % T/C on day 14: 80.5%
  % T/C on day 16: 91.1%
HT1080 tumors; PM01183 0.09 mg/kg
  % T/C on day 0: 100%
  % T/C on day 2: 66.7%
  % T/C on day 4: 57.1%
  % T/C on day 7: 65.4%
  % T/C on day 9: 48.0%
  % T/C on day 11: 42.7%
  % T/C on day 14: 45.8%
  % T/C on day 16: 56.4%
HT1080 tumors; [13]
  % T/C (median total diameter, tumor+leg) on day 9: 36.0%
  % T/C (median total diameter, tumor+leg) on day 11: 30.2%
  % T/C (median total diameter, tumor+leg) on day 14: 33.0%
  % T/C (median total diameter, tumor+leg) on day 16: 41.9%
HT1080 tumors; PM01183 0.135 mg/kg
  % T/C on day 0: 100%
  % T/C on day 2: 63.0%
  % T/C on day 4: 62.9%
  % T/C on day 7: 48.1%
  % T/C on day 9: 36.0%
  % T/C on day 11: 30.2%
  % T/C on day 14: 33.0%
  % T/C on day 16: 41.9%
HT1080 tumors; PM01183 0.18 mg/kg iv days 0,7
  % T/C (median total diameter, tumor+leg) on day 9: 26.7%
  % T/C (median total diameter, tumor+leg) on day 11: 11.5%
  % T/C (median total diameter, tumor+leg) on day 14: 21.2%
  % T/C (median total diameter, tumor+leg) on day 16: 30.6%
HT1080 tumors; PM01183 0.18 mg/kg
  % T/C on day 0: 100%
  % T/C on day 2: 59.3%
  % T/C on day 4: 40.0%
  % T/C on day 7: 26.9%
  % T/C on day 9: 26.7%
  % T/C on day 11: 11.5%
  % T/C on day 14: 21.2%
  % T/C on day 16: 30.6%
